From patent publication US20240228488A1 (TAKEDA PHARMACEUTICAL COMPANY LIMITED, priority 2021, published 2024)

Target: human activated kallikrein enzyme (Homo sapiens, UniProt P03952)
Experiment: Plasma kallikrein inhibition, fluorogenic PFR-AMC substrate, 500 pM activated kallikrein format
Format: biochemical
Details: 500 pM activated kallikrein, 300 uM PFR-AMC, 30 min preincubation, 10 min reaction; read-out: Primary Dose Response Assay: Average EC50
Experimental: Compounds were evaluated for inhibition of the human activated kallikrein enzyme in two formats of an assay employing a fluorogenic peptide substrate. In one assay format, the concentrations of reagents were as follows: 20 mM Tris pH 7.5, 1 mM EDTA, 150 mM sodium chloride, 0.1% PEG-400, 0.1% Triton X-100, 500 pM activated kallikrein enzyme, 300 uM Pro-Phe-Arg-7-amido-4-methylcoumarin (PFR-AMC) substrate. Prior to reaction initiation with substrate, enzyme and inhibitors were preincubated for 30 min at room temperature. After initiation with substrate, reactions were incubated for 10 min at room temperature and fluorescence emission at 460 nm from 380 nm excitation measured with a microplate reader. In another assay format, the concentrations of reagents were as follows: 20 mM Tris pH 7.5, 1 mM EDTA, 150 mM sodium chloride, 0.1% PEG-400, 0.1% Triton X-100, 5 pM activated kallikrein enzyme, 300 uM PFR-AMC substrate. Prior to reaction initiation with substrate, enzyme and inhibitors were preincubated for 30 min at room temperature. After initiation with substrate, reactions were incubated for 18 hr at room temperature and fluorescence emission at 460 nm from 380 nm excitation measured with a microplate reader.
Table 49 provides the results of the assay in the format with 500 pM activated kallikrein assay. For the compounds listed in Table 49, the EC50 values are reported according to the following ranges: A≤1.0 nM; 1.0 nM<B≤10 nM; 10 nM<C≤100 nM; 100 nM<D≤1000 nM; 1000 nM<E≤6000 nM; 6000 nM<F.
Table 51 provides comparative plasma kallikrein inhibition potency in the assay format with 500 pM activated kallikrein assay (described in detail in a preceding example). For the compounds listed in Table 51, the EC50 values are reported according to the following ranges: A≤1.0 nM; 1.0 nM<B≤10 nM; 10 nM<C≤100 nM; 100 nM<D≤1000 nM; 1000 nM<E≤6000 nM; 6000 nM<F.

Sequence of human activated kallikrein enzyme (P03952 391-638 limits assumed): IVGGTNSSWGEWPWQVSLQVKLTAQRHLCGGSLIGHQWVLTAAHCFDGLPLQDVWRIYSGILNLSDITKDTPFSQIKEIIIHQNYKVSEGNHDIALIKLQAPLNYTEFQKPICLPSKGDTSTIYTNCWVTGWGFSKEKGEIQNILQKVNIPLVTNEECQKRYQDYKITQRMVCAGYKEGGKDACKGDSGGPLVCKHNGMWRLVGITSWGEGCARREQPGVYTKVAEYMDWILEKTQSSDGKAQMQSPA
Sequence of human activated kallikrein enzyme (P03952 20-390 partner limits assumed): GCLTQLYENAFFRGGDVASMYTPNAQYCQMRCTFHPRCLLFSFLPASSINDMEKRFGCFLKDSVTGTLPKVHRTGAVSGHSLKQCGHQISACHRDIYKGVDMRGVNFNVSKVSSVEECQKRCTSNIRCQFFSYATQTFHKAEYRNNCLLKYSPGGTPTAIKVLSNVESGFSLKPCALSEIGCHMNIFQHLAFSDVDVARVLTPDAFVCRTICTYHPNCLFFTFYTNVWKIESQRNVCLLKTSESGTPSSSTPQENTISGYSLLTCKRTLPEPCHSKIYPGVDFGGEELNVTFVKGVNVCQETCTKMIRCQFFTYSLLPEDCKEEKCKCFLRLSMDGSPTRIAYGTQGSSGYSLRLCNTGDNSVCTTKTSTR

EC50 [nM] | Structure (SMILES)
< 1 | Cc1ccnc([C@H]2C[C@@H]2C(=O)Nc2ncnc3nn(Cc4cn5cc(C6CC6)cc(N6CC(=O)N(C)C6=O)c5n4)cc23)n1 (single isomer, unassigned) [Example I-634, rac-(1S*,2S*)—N-(2-((6-cyclopropyl-8-(3-methyl-2,4-dioxoimidazolidin-1-yl)imidazo[1,2-a]pyridin-2-yl)methyl)-2H-pyrazolo[3,4-d]pyrimidin-4-yl)-2-(4-methylpyrimidin-2-yl)cyclopropane-1-carboxamide]
> 6000 | CC(C)(C)OC(=O)Nc1cc(Cl)cc([C@H]2C[C@@H]2C(=O)Nc2cc(NCc3cn4cc(C5CC5)ccc4n3)ncn2)c1 (racemic) [Example I-189, rac-tert-butyl (3-chloro-5-((1S*,2S*)-2-((6-(((6-cyclopropylimidazo[1,2-a]pyridin-2-yl)methyl)amino)pyrimidin-4-yl)carbamoyl)cyclopropyl)phenyl)carbamate]
< 1 | Cc1ccnc([C@H]2C[C@@H]2C(=O)Nc2nncc(NCc3cn4cc(C5CC5)cc(N5CC(=O)N(C)C5=O)c4n3)n2)n1 [Example I-651, (1S,2S)—N-(5-(((6-cyclopropyl-8-(3-methyl-2,4-dioxoimidazolidin-1-yl)imidazo[1,2-a]pyridin-2-yl)methyl)amino)-1,2,4-triazin-3-yl)-2-(4-methylpyrimidin-2-yl)cyclopropane-1-carboxamide]
< 1 | O=C(Nc1cc(NCc2cn3cc(C4CC4)ccc3n2)ncn1)[C@@H]1C[C@]12C(=O)Nc1ccc(Cl)cc12 (racemic) [Example 509, rac-(1R*,2S*)-5′-chloro-N-(6-(((6-cyclopropylimidazo[1,2-a]pyridin-2-yl)methyl)amino)pyrimidin-4-yl)-2′-oxospiro[cyclopropane-1,3′-indoline]-2-carboxamide]
> 6000 | O=C(Nc1cc(NCc2cn3cc(C4CC4)ccc3n2)ncn1)[C@H]1C[C@@H]1c1cccc(C2CC2)c1 (racemic) [Example 351, rac-(1S*,2S*)—N-(6-(((6-cyclopropylimidazo[1,2-a]pyridin-2-yl)methyl)amino)pyrimidin-4-yl)-2-(3-cyclopropylphenyl)cyclopropane-1-carboxamide]
< 1 | Cc1ccnc([C@H]2C[C@@H]2C(=O)Nc2cc(NC(CO)c3cn4cc(C5CC5)cc(N5CC(=O)N(C)C5=O)c4n3)nc(C)n2)n1 (stereo partly drawn) [Example I-650, (1S,2S)—N-(6-((1-(6-cyclopropyl-8-(3-methyl-2,4-dioxoimidazolidin-1-yl)imidazo[1,2-a]pyridin-2-yl)-2-hydroxyethyl)amino)-2-methylpyrimidin-4-yl)-2-(4-methylpyrimidin-2-yl)cyclopropane-1-carboxamide]
10 to 100 | CC(NC(=O)[C@H]1C[C@@H]1c1cccc(Cl)c1)c1cn(Cc2cn3cc(C4CC4)ccc3n2)nn1 (single isomer, unassigned) [Example 589, rac-(1S*,2S*)-2-(3-chlorophenyl)-N-(1-(1-((6-cyclopropylimidazo[1,2-a]pyridin-2-yl)methyl)-1H-1,2,3-triazol-4-yl)ethyl)cyclopropane-1-carboxamide]
1 to 10 | C[S+]([O-])c1nc(NCc2cn3cc(C4CC4)ccc3n2)cc(NC(=O)[C@H]2C[C@@H]2c2cccc(Cl)c2)n1 (relative stereo) [Example 109, rac-(1S*,2S*)-2-(3-chlorophenyl)-N-(6-(((6-cyclopropylimidazo[1,2-a]pyridin-2-yl)methyl)amino)-2-(methylsulfinyl)pyrimidin-4-yl)cyclopropane-1-carboxamide]
> 6000 | COc1cc([C@H]2C[C@@H]2C(=O)Nc2cc(NCc3cn4cc(C5CC5)ccc4n3)ncn2)cc(NC(=O)OC(C)(C)C)n1 (racemic) [Example I-182, rac-tert-butyl (4-((1S*,2S*)-2-((6-(((6-cyclopropylimidazo[1,2-a]pyridin-2-yl)methyl)amino)pyrimidin-4-yl)carbamoyl)cyclopropyl)-6-methoxypyridin-2-yl)carbamate]
< 1 | CS(=O)(=O)c1cc(C2CC2)cn2cc(CNc3cc(NC(=O)[C@H]4C[C@@H]4c4cc(Cl)ccn4)ncn3)nc12 [Example 325, (1S,2S)-2-(4-chloropyridin-2-yl)-N-(6-(((6-cyclopropyl-8-(methylsulfonyl)imidazo[1,2-a]pyridin-2-yl)methyl)amino)pyrimidin-4-yl)cyclopropane-1-carboxamide]
< 1 | O=C(Nc1cc(NCc2cn3cc(C4CC4)cc(-n4cnnc4)c3n2)ncn1)[C@H]1C[C@@H]1c1cccc(Cl)c1 (racemic) [Example 405, rac-(1S*,2S*)-2-(3-chlorophenyl)-N-(6-(((6-cyclopropyl-8-(4H-1,2,4-triazol-4-yl)imidazo[1,2-a]pyridin-2-yl)methyl)amino)pyrimidin-4-yl)cyclopropane-1-carboxamide]
< 1 | Cc1ccnc([C@H]2C[C@@H]2C(=O)Nc2ncnc3nn(Cc4cn5cc(C6CC6)cc(N6CC(=O)N(C)C6=O)c5n4)cc23)n1 (racemic) [Example 632, rac-(1S*,2S*)—N-(2-((6-cyclopropyl-8-(3-methyl-2,4-dioxoimidazolidin-1-yl)imidazo[1,2-a]pyridin-2-yl)methyl)-2H-pyrazolo[3,4-d]pyrimidin-4-yl)-2-(4-methylpyrimidin-2-yl)cyclo propane-1-carboxamide]
< 1 | CCc1cc(N2CC(=O)N(C)C2=O)c2nc(CNc3cc(NC(=O)[C@H]4C[C@@H]4c4nccc(C)n4)ncn3)cn2c1 [Example 538, (1S,2S)-N-(6-(((6-ethyl-8-(3-methyl-2,4-dioxoimidazolidin-1-yl)imidazo[1,2-a]pyridin-2-yl)methyl)amino)pyrimidin-4-yl)-2-(4-methylpyrimidin-2-yl)cyclopropane-1-carboxamide]
100 to 1000 | Cc1ccnc([C@H]2C[C@@H]2C(=O)Nc2cc(NC(C)c3cn4c(N5CC(=O)N(C)C5=O)cc(C5CC5)cc4n3)nc(C)n2)n1 (stereo partly drawn) [Example 362, (1S,2S)-N-(6-((1-(7-cyclopropyl-5-(3-methyl-2,4-dioxoimidazolidin-1-yl)imidazo[1,2-a]pyridin-2-yl)ethyl)amino)-2-methylpyrimidin-4-yl)-2-(4-methylpyrimidin-2-yl)cyclopropane-1-carboxamide]
10 to 100 | O=C(Nc1cc(N2CCC[C@@H]2c2cn3cc(C4CC4)ccc3n2)ncn1)[C@H]1C[C@@H]1c1cccc(Cl)c1 [Example I-251, (1S,2S)-2-(3-chlorophenyl)-N-(6-((R)-2-(6-cyclopropylimidazo[1,2-a]pyridin-2-yl)pyrrolidin-1-yl)pyrimidin-4-yl)cyclopropane-1-carboxamide]
< 1 | O=C(Nc1cc(NCc2cn3cc(C4CC4)cc(N4CCCC4=O)c3n2)ccn1)[C@@H]1C[C@H]1c1cccc(Cl)c1 (relative stereo) [Example 118]
100 to 1000 | O=C(Nc1cc(NCc2cn3cc(C4CC4)ccc3n2)ncn1)[C@H]1C[C@@H]1c1cc(Cl)ccc1C(F)(F)F (racemic) [Example 52, rac-(1S*,2S*)-2-(5-chloro-2-(trifluoromethyl)phenyl)-N-(6-(((6-cyclopropylimidazo[1,2-α]pyridin-2-yl)methyl)amino)pyrimidin-4-yl)cyclopropane-1-carboxamide]
